As a reminder, the IC50 is the concentration that inhibits the measured activity by half.

One assay concerns the target T1, SGLT1 (Homo sapiens, UniProt P13866).
T1 construct: expressed in transfected cells
T1 sequence (P13866 1-664): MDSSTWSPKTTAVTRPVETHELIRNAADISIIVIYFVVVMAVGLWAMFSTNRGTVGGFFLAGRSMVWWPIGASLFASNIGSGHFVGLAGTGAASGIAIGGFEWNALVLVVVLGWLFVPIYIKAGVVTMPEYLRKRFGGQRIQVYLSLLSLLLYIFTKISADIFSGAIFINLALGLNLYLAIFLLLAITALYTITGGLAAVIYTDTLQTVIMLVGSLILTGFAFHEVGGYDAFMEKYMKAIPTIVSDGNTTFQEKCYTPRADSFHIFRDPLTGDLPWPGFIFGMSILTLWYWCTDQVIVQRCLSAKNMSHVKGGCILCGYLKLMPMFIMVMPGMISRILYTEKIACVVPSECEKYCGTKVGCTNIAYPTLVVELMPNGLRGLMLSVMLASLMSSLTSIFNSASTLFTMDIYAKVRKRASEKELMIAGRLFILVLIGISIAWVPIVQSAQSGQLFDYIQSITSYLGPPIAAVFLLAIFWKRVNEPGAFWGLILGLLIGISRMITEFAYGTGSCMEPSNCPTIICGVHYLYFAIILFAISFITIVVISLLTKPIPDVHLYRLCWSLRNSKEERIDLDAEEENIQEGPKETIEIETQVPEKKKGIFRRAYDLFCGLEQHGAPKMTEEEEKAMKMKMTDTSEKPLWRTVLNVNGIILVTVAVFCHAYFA
The assay is described as follows: 14C-AMG uptake in BHK cells transfected with SGLT1 (96-well cell-based assay). The settings on record: 50 μM AMG, 37° C., 90 min. An excerpt:
(§1) The compounds can be tested for their SGLT inhibition properties by means of BHK cells expressing SGLT1 and SGLT2. The production of the cells and the testing can be carried out as described below.
To construct the SGLT1 expression vector (KL225), the SLC5A1 gene (homologous to NM_000343) was amplified from a cDNA library using standard PCR technology and cloned over NheI/XhoI sites into the pcDNA3.1 expression vector (Invitrogen) containing neomycin as a selection marker. In this vector, transcription uses the enhancer/promoter of human cytomegalovirus.
(§2) The final vector KL225 together with an additional vector containing a dihydrofolate reductase gene as a selection marker was introduced into cells. Transfection into BHK21 cells (ATCC CCL-10), cultivated in DMEM medium (GIBCO/BRL), supplemented with 10% foetal calf serum (FCS) and 20 mM glutamine, was carried out using calcium phosphate transfections according to Graham, F. L. and van der Ebb, A. J. (1973), Virology 52: 456 with 5-20 μg of uncut plasmids for 10^7 cells. Stable transfectants were selected in medium containing 1 mg/ml of G418 (GIBCO/BRL) and 20-5000 nM methotrexate as final concentration, where only cells which expressed the neomycin gene and overexpressed the dhfr gene were able to grow. After growth for 2-3 weeks, the cells were cloned (0.5 cells/well) and the clones were investigated for SGLT expression in radioactivity uptake tests. […]
(§3) A 96-well cell-based assay was developed and adapted to HTS requirements:
(§4) BHK cells (transfected with SGLT1 or SGLT2) were seeded into 96-well microtitre plates (Cultureplates, Perkin Elmer). After at least 24 h, medium was removed, and the cell layer was washed with assay buffer (140 mM NaCl, 2 mM KCl, 1 mM CaCl2, 1 mM MgCl2, 10 mM HEPES, 5 mM Tris, adjusted to pH 7.4 using 1 M KOH). After addition of 40 μl of assay buffer, 50 μl of AMG (50 μM for SGLT1 and 2 mM for SGLT2) in the presence or absence of compounds, the cells were incubated in a total volume of 100 μl at 37° C. for 90 min. Supernatant was removed by suction and discarded. Cells were washed and lysed by addition of 50 μl of water. After 10 min at room temperature, 200 μl of Micrsoscint 40 (Perkin Elmer) were added. The radioactivity was counted in a Topcount microplate scintillation counter (Perkin Elmer). The non-specific uptake was determined in sodium-free assay buffer (266 mM sucrose, 2 mM KCl, 1 mM CaCl2, 1 mM MgCl2, 10 mM HEPES, 5 mM Tris, adjusted to pH 7.4 using 1 M KOH).

For a further assay, the target named is T2, SGLT2 (Homo sapiens, UniProt P31639).
T2 construct: expressed in transfected cells
T2 sequence (P31639 1-672): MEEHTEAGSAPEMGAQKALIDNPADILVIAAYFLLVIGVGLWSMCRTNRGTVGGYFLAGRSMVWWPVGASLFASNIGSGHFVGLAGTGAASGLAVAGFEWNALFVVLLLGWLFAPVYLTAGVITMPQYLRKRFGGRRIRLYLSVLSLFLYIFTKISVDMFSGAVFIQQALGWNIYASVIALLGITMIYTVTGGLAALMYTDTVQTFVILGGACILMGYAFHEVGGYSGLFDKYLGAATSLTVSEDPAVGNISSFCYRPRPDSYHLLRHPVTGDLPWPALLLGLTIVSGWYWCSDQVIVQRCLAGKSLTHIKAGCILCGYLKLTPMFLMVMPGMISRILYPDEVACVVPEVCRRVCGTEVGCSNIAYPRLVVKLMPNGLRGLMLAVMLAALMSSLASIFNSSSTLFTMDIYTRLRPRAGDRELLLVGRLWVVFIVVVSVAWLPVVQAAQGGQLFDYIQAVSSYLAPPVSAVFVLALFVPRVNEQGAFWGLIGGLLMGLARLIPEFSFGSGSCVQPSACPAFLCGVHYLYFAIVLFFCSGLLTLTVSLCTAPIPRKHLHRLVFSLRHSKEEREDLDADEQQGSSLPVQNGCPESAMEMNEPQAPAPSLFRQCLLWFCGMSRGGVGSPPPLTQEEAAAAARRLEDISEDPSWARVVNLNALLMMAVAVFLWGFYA
The assay can be described thus: 14C-AMG uptake in BHK cells transfected with SGLT2 (96-well cell-based assay). The settings on record: 2 mM AMG, 37° C., 90 min.
Source text: as §1
To construct the SGLT2 expression vector (KL224), the SLC5A2 gene (homologous to NM_003041) was amplified from a cDNA library using standard PCR technology and cloned over NheI/XhoI sites into PCI-neo expression vector (Promega) containing neomycin as a selection marker. In this vector, transcription uses the enhancer/promoter of human cytomegalovirus and the SV40 polyadenylation signal.
as §2, with “KL224” for “KL225”
as §3, §4

`Cc1cccc(C)c1Nc1c(-c2ccccc2OCC(N)=O)nc2ncccn12` [Compound A1, 2-{2-[3-(2,6-Dimethylphenylamino)-imidazo[1,2-a]pyrimidin-2-yl]phenoxy}-acetamide]: the IC50 on SGLT1 is more than 10000 nM; against SGLT2 it was 1000 to 10000 nM.

With `Cc1cc(C)n2c(Nc3c(C)cccc3C)c(-c3ccccc3OCC(N)=O)nc2n1` [Compound A2], the IC50 against SGLT1 and against SGLT2 was more than 10000 nM in each case.

In the case of `CNc1nnc(-c2cc(OC)cc(OC)c2-c2nc3ncccn3c2Nc2c(Cl)cccc2Cl)o1` [Compound A3, (2,6-dichlorophenyl)-{2-[2,4-dimethoxy-6-(5-methylamino-1,3,4-oxadiazol-2-yl)phenyl]imidazo[1,2-a]pyrimidin-3-yl}amine], the IC50 against SGLT1 and against SGLT2 was 10 to 1000 nM in each case.

On to `CNc1nnc(-c2cc(OC)cc(OC)c2-c2nc3ncccn3c2Nc2c(Cl)cc(F)cc2Cl)o1` [Compound A4, (2,6-Dichloro-4-fluorophenyl)-{2-[2,4-dimethoxy-6-(5-methylamino-1,3,4-oxadiazol-2-yl)phenyl]imidazo[1,2-a]-pyrimidin-3-yl}amine], for which the IC50 against SGLT1 and on SGLT2 was 10 to 1000 nM throughout.

As to `CCNc1nnc(-c2cc(OC)cc(OC)c2-c2nc3ncccn3c2Nc2c(Cl)cccc2Cl)o1` [Compound A5, (2,6-Dichlorophenyl)-{2-[2-(5-ethylamino-1,3,4-oxadiazol-2-yl)-4,6-dimethoxy-phenyl]imidazo[1,2-a]pyrimidin-3-yl}-amine], the IC50 against SGLT1 fell in the range of 1000 to 10000 nM; at SGLT2, 10 to 1000 nM.

For the molecule `COc1cc(OC)c(-c2nc3ncccn3c2Nc2c(Cl)cccc2Cl)c(-c2n[nH]c(=O)o2)c1` [Compound A6, 5-{2-[3-(2,6-dichlorophenylamino)imidazo[1,2-a]-pyrimidin-2-yl]-3,5-dimethoxyphenyl}-3H-1,3,4-oxadiazol-2-one], the IC50 against SGLT1 was more than 10000 nM; against SGLT2 it was 1000 to 10000 nM.

Consider `CCc1cccc(OCC(N)=O)c1-c1nc2ncccn2c1Nc1c(Cl)cccc1Cl` [Compound A7], for which the IC50 at SGLT1 was in the range of 1000 to 10000 nM; against SGLT2 it was 10 to 1000 nM.

Turning to `CCc1cccc(OCC(N)=O)c1-c1nc2ncccn2c1Nc1c(C)cccc1C` [Compound A8, 2-{2-[3-(2,6-dimethylphenylamino)imidazo[1,2-a]-pyrimidin-2-yl]-3-ethylphenoxy}acetamide], the IC50 against SGLT1 and against SGLT2 was 1000 to 10000 nM throughout.

`CCc1cc(OC)cc(OCC(N)=O)c1-c1nc2ncccn2c1Nc1c(C)cccc1C` [Compound A9]: the figures for the IC50 against SGLT1 and on SGLT2 were more than 10000 nM and 10 to 1000 nM, respectively.

As to `COc1cc(C)c(-c2nc3ncccn3c2Nc2c(C)cccc2C)c(OCC(N)=O)c1` [Compound A10, 2-{2-[3-(2,6-Dimethylphenylamino)-imidazo[1,2-a]pyrimidin-2-yl]-5-methoxy-3-methylphenoxy}acetamide], the IC50 against SGLT1 was more than 10000 nM; at SGLT2, 10 to 1000 nM.

For `CNc1nnc(-c2cc(OC)cc(OC)c2-c2nc3ncccn3c2Nc2c(C)cccc2C)o1` [Compound A11, {2-[2,4-Dimethoxy-6-(5-methylamino-1,3,4-oxadiazol-2-yl)phenyl]imidazo-[1,2-a]pyrimidin-3-yl}-(2,6-dimethyl-phenyl)amine], the IC50 against SGLT1 lay in the range of 1000 to 10000 nM; on SGLT2, 10 to 1000 nM.

On to `CCc1cc(OC)cc(OCC(N)=O)c1-c1nc2ncccn2c1Nc1c(Cl)cccc1Cl` [Compound A12, 2-{2-[3-(2,6-Dichlorophenylamino)-imidazo[1,2-a]pyrimidin-2-yl]-3-ethyl-5-methoxyphenoxy}acetamide], for which the IC50 against SGLT1 is more than 10000 nM; at SGLT2 it was 10 to 1000 nM.

As for `CNc1nnc(-c2ccccc2-c2nc3ncccn3c2Nc2c(Cl)cc(F)cc2Cl)o1` [Compound A13, (2,6-Dichloro-4-fluorophenyl)-{2-[2-(5-methylamino-1,3,4-oxadiazol-2-yl)-phenyl]imidazo[1,2-a]pyrimidin-3-yl}-amine], the figures for the IC50 against SGLT1 and against SGLT2 were 1000 to 10000 nM and 10 to 1000 nM, respectively.

With `CCNc1nnc(-c2ccccc2-c2nc3ncccn3c2Nc2c(Cl)cccc2Cl)o1` [Compound A15, (2,6-Dichlorophenyl)-{2-[2-(5-ethylamino-1,3,4-oxadiazol-2-yl)phenyl]imidazo-[1,2-a]pyrimidin-3-yl}amine], the IC50 against SGLT1 is 1000 to 10000 nM; against SGLT2, 10 to 1000 nM.

As to `CNc1nnc(-c2cc(Cl)cc(Cl)c2-c2nc3ncccn3c2Nc2c(C)cccc2C)o1` [Compound A16, {2-[2,4-Dichloro-6-(5-methylamino-1,3,4-oxadiazol-2-yl)phenyl]imidazo[1,2-a]-pyrimidin-3-yl}-(2,6-dimethylphenyl)amine], the IC50 on SGLT1 was 1000 to 10000 nM; on SGLT2, 10 to 1000 nM.

As for `COc1cc(C(N)=O)c(-c2nc3ncccn3c2Nc2c(Cl)cccc2Cl)c(OC)c1OC` [Compound A17, 2-[3-(2,6-dichlorophenylamino)imidazo[1,2-a]pyrimidin-2-yl]-3,5,4-trimethoxybenzamide], the IC50 on SGLT1 was more than 10000 nM; against SGLT2, 1000 to 10000 nM.

As for `COc1cc(OC)c(-c2nc3ncccn3c2Nc2c(Cl)cccc2Cl)c(C(=O)NN)c1` [Compound A18, 2-[3-(2,6-dichlorophenylamino)imidazo[1,2-a]pyrimidin-2-yl]-3,5-dimethoxybenzohydrazide], the IC50 at SGLT1 was more than 10000 nM; against SGLT2, 1000 to 10000 nM.
